SMILES strings stand for the structures. Where a name gives a salt, the structure may show the parent alone.

Data set [1] deals with interferon (α). The experiment in a line: Cytokine Induction in Human Cells: interferon (α) by ELISA. The format is cell-based. The settings on record: PBMC; human PBMCs, incubated 18 to 24 hours, lowest concentration found to induce interferon. The essentials:
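Healthy-donor human PBMCs (1.5–2×10^6 cells/mL final, RPMI with 10% FBS) exposed to serially diluted compound (≤1% DMSO) for 18–24 h at 37 °C, 5% CO2. Supernatant IFN-α measured by ELISA; value reported is lowest concentration inducing interferon.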
For orientation: In an ELISA, binding on a coated surface is turned into a signal by an enzyme label.

Data set [2] concerns tumor necrosis factor (α). Briefly: Cytokine Induction in Human Cells: tumor necrosis factor (α) by ELISA. The format is cell-based. As to conditions: PBMC; human PBMCs, incubated 18 to 24 hours, lowest concentration found to induce tumor necrosis factor. The essentials: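 Healthy-donor PBMCs (1.5–2×10^6 cells/mL final, RPMI with 10% FBS) incubated 18–24 h at 37 °C with compound in three- or ten-fold serial dilutions, DMSO ≤1% final. Supernatant TNF measured by ELISA; value is lowest concentration inducing TNF.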

`CC(C)(C)OC(=O)NCCCn1cnc2c(N)nc3ccccc3c21` [Example 173, tert-butyl 3-(4-amino-1H-imidazo[4,5-c]quinolin-1-yl)propylcarbamate] gave a melting point of 196 to 198 °C. The minimal effective concentration in data set [1] was 1.11 µM. In data set [2], this molecule displayed a minimal effective concentration of 10 µM.

The molecule `CC(C)(C)OC(=O)NCCCn1c(CCCOc2ccccc2)nc2c(N)nc3ccccc3c21` [Example 174, tert-butyl 3-[4-amino-2-(3-phenoxypropyl)-1H-imidazo[4,5-c]quinolin-1-yl]propylcarbamate] displayed a melting point of 151 to 153 °C. The same molecule showed a minimal effective concentration in data set [1] of over 30 µM. Besides, the minimal effective concentration in data set [2] is over 30 µM.

`CCCCc1nc2c(N)nc3ccccc3c2n1CCCNC(=S)Nc1ccccc1` [Example 149, N-[3-(4-amino-2-butyl-1H-imidazo[4,5-c]quinolin-1-yl)propyl]-N′-phenylthiourea]: the melting point lay within 142.8 to 144 °C. In data set [1], this molecule came in with a minimal effective concentration of 0.04 µM. The molecule also came in with a minimal effective concentration in data set [2] of 0.37 µM.

Molecule `CCCCc1nc2c(N)nc3ccccc3c2n1CCCCNC(=O)Nc1ccccc1` [Example 164, N-[4-(4-amino-2-butyl-1H-imidazo[4,5-c]quinolin-1-yl)butyl]-N′-phenylurea] registered a melting point of 185 to 187 °C. Further, the minimal effective concentration in data set [1] came to 0.04 µM. In data set [2], this molecule had a minimal effective concentration of 0.12 µM.

For `CCCCc1nc2c(N)nc3ccccc3c2n1CCCCCCCCNC(=O)Nc1ccccc1` [Example 154, N-[8-(4-amino-2-butyl-1H-imidazo[4,5-c]quinolin-1-yl)octyl]-N′-phenylurea], the melting point was 153 to 155 °C. For the same molecule, in data set [1], the minimal effective concentration amounted to 0.37 µM. In data set [2], the minimal effective concentration amounted to 1.11 µM.

The molecule `CCOCc1nc2c(N)nc3ccccc3c2n1CCCNC(=O)OC(C)(C)C` [Example 175, tert-butyl 3-[4-amino-2-(ethoxymethyl)-1H-imidazo[4,5-c]quinolin-1-yl]propylcarbamate] displayed a melting point of 124 to 126 °C. Also, the minimal effective concentration in data set [1] worked out at 0.04 µM. Besides, in data set [2], the minimal effective concentration was found to be 0.37 µM.

`CCCCCc1nc2c(N)nc3ccccc3c2n1CCCCNC(=O)Nc1ccccc1` [Example 159, N-[4(4-amino-2-pentyl-1H-imidazo[4,5-c]quinolin-1-yl)butyl]-N′-phenylurea] had a melting point of 159 to 160.4 °C. Moreover, the minimal effective concentration in data set [1] is 1.11 µM. The molecule further showed a minimal effective concentration in data set [2] of 10 µM.

Consider `CCCCCCc1nc2c(N)nc3ccccc3c2n1CCCCNC(=O)Nc1ccccc1` [Example 155, N-[4-(4-amino-2-hexyl-1H-imidazo[4,5-c]quinolin-1-yl)butyl]-N′-phenylurea], for which the melting point was in the range of 170.4 to 171.6 °C. For the same molecule, the minimal effective concentration in data set [1] is 3.33 µM. This molecule also showed a minimal effective concentration in data set [2] of 10 µM.

On to `CCOCc1nc2c(N)nc3ccccc3c2n1CCNC(=O)OC(C)(C)C` [Example 177, tert-butyl 2-[4-amino-2-(ethoxymethyl)-1H-imidazo[4,5-c]quinolin-1-yl]ethylcarbamate], for which the melting point lay in the range of 201 to 202 °C. Further, in data set [1], the minimal effective concentration came to 0.04 µM. The same molecule displayed a minimal effective concentration in data set [2] of 0.37 µM.

`Cc1nc2c(N)nc3ccccc3c2n1CCCNC(=O)OC(C)(C)C` [Example 176, tert-butyl 3-(4-amino-2-methyl-1H-imidazo[4,5-c]quinolin-1-yl)propylcarbamate] registered a melting point of 112 to 115 °C. The molecule also came in with a minimal effective concentration in data set [1] of 0.12 µM. In data set [2], this molecule registered a minimal effective concentration of 1.11 µM.

As for `CCc1nc2c(N)nc3ccccc3c2n1CCCCNC(=O)Nc1ccccc1` [Example 143, N-[4-(4-amino-2-ethyl-1H-imidazo[4,5-c]quinolin-1-yl)butyl]-N′-phenylurea], the melting point was in the range of 179.7 to 181.4 °C. Moreover, in data set [1], the minimal effective concentration worked out at 0.01 µM. The molecule further had a minimal effective concentration in data set [2] of 0.37 µM.

In turn, `CCCCNC(=O)NCCCn1c(CCOC)nc2c(N)nc3ccccc3c21` [Example 162, N-{3-[4-amino-2-(2-methoxyethyl)-1H-imidazo[4,5-c]quinolin-1-yl]propyl}-N′-butylurea] showed a melting point of 159 to 160 °C. Further, the minimal effective concentration in data set [1] came out at 0.01 µM. The same molecule showed a minimal effective concentration in data set [2] of 0.04 µM.

In turn, `CC(C)(C)OC(=O)NCCCCn1cnc2c(N)nc3ccccc3c21` [Example 2] came in with a melting point of 171 to 173 °C. Besides, the minimal effective concentration in data set [1] was 0.37 µM. This molecule also had a minimal effective concentration in data set [2] of 3.33 µM.

Regarding `COCCc1nc2c(N)nc3ccccc3c2n1CCCNC(=O)NC1CCCCC1` [Example 158, N-{3-[4-amino-2-(2-methoxyethyl)-1H-imidazo[4,5-c]quinolin-1-yl]propyl}-N′-cyclohexylurea], the melting point is 179 to 180 °C. Also, in data set [1], the minimal effective concentration came to 0.01 µM. This molecule also returned a minimal effective concentration in data set [2] of 1.11 µM.

`CCCNC(=S)NCCCn1c(CCOC)nc2c(N)nc3ccccc3c21` [Example 156, N-{3-[4-amino-2-(2-methoxyethyl)-1H-imidazo[4,5-c]quinolin-1-yl]propyl}-N′-propylthiourea] displayed a melting point of 172 to 173 °C. For the same molecule, the minimal effective concentration in data set [1] is 0.01 µM. In addition, the minimal effective concentration in data set [2] is 1.11 µM.

For `Nc1nc2ccccc2c2c1nc(CCCOc1ccccc1)n2CCCNC(=O)N1CCOCC1` [Example 166, N-{3-[4-amino-2-(3-phenoxypropyl)-1H-imidazo[4,5-c]quinolin-1-yl]propyl}morpholine-4-carboxamide], the melting point is 198.8 to 199.9 °C.

Take `CCCCc1nc2c(N)nc3ccccc3c2n1CCCNC(=O)N1CCOCC1` [Example 151, N-[3-(4-amino-2-butyl-1H-imidazo[4,5-c]quinolin-1-yl)propyl]morpholine-4-carboxamide]: the melting point fell in the range of 193.4 to 194.6 °C. The same molecule showed a minimal effective concentration in data set [1] of 0.01 µM. This molecule returned a minimal effective concentration in data set [2] of 0.01 µM.

Molecule `CC(C)(C)OC(=O)NCCn1cnc2c(N)nc3ccccc3c21` [Example 1, Tert-Butyl N-[2-(4-Amino-1H-imidazo[4,5-c]quinolin-1-yl)ethyl]carbamate] had a melting point of 215 °C. Besides, the minimal effective concentration in data set [1] was determined as 3.33 µM. For the same molecule, the minimal effective concentration in data set [2] turned out to be 30 µM.

For `CCCCCc1nc2c(N)nc3c(c2n1CCCCNC(=O)N1CCOCC1)CCCC3` (as salt: hydrochloride) [Example 172, N-[4-(4-amino-2-pentyl-6,7,8,9-tetrahydro-1H-imidazo[4,5-c]quinolin-1-yl)butyl]morpholine-4-carboxamide hydrochloride], the melting point is 126.8 to 127.5 °C.

Consider `CC(C)(C)OC(=O)NCCCCn1c(-c2ccccc2)nc2c(N)nc3ccccc3c21` [Example 12, tert-Butyl N-[4-(4-Amino-2-phenyl-1H-imidazo[4,5-c]quinolin-1-1)butyl]carbamate], for which the melting point was 182 to 183 °C.

Take `COCCc1nc2c(N)nc3c(c2n1CCCNC(=O)N1CCOCC1)CCCC3` [Example 168, N-{3-[4-amino-2-(2-methoxyethyl)-6,7,8,9-tetrahydro-1H-imidazo[4,5-c]quinolin-1-yl]propyl}morpholine-4-carboxamide]: the melting point was in the range of 171.8 to 173.2 °C.

The minimal effective concentration is the lowest level tested that produced the effect sought. Read a low minimal effective concentration as greater potency. As a reminder, the melting point is the temperature of the solid-liquid transition.
